Experimental data from US9120785B2, “Pyridyl aminopyridines as Syk inhibitors” (Merck Sharp & Dohme Corp., priority 2011, dated 2015).

biological target: recombinant human GST-Syk (Homo sapiens (Human), UniProt P43405); assay: Homogeneous Time-Resolved Fluorescence (HTRF) assay for the recombinant human Syk enzyme; assay type: biochemical; conditions: recombinant human GST-Syk 5 pM, ATP 25 μM, 10-dose titration; read-out: rhSyk (nM) IC50
In short: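 GST-hSyk (5 pM final) preincubated 10 min at room temperature with inhibitor (0.1% DMSO) in 15 mM Tris-HCl pH 7.5, 0.01% Tween 20, 2 mM DTT. Reaction with 250 nM biotinylated peptide, 5 mM Mg, 25 μM ATP for 45 min, room temperature. Quenched with EDTA; Eu-anti-phosphotyrosine/SA-APC HTRF read after 30 min.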

Row | IC50 | Structure (SMILES)
1 | 6 nM | CC1(C)C[C@@H](C(C)(O)c2ncc(-c3cccc(Nc4cc(C(F)F)ccn4)n3)s2)CC[C@@H]1C(=O)O (stereo partly drawn) [Example 14-50, (1S,4S)-4-{1-[5-(6-{[4-(difluoromethyl)pyridin-2-yl]amino}pyridin-2-yl)-1,3-thiazol-2-yl]-1-hydroxyethyl)-2,2-dimethylcyclohexanecarboxylic acid]

same assay, conditions: recombinant human GST-Syk 5 pM, ATP 25 μM; class symbols; read-out: rhSyk activity (IC50)

Row | IC50 | Structure (SMILES)
2 | ≤ 100 nM | Cc1cc(Nc2cc(C(F)(F)F)ccn2)nc(-c2cnc(C(C)(O)[C@@H]3CC[C@H](C(=O)O)C(C)(C)C3)s2)c1 (stereo partly drawn) [Example 14-30, (1S,4R)-4-{1-hydroxy-1-[5-(4-methyl-6-{[4-(trifluoromethyl)pyridin-2-yl]amino}pyridin-2-yl)-1,3-thiazol-2-yl]ethyl}-2,2-dimethylcyclohexanecarboxylic acid]
3 | ≤ 100 nM | Cc1cc(Nc2cc(C(F)(F)F)ccn2)nc(-c2cnc(C(C)(O)[C@H]3CC[C@H](C(=O)O)C(C)(C)C3)s2)c1 (stereo partly drawn) [Example 14-31, (1S,4S)-4-{1-hydroxy-1-[5-(4-methyl-6-{[4-(trifluoromethyl)pyridin-2-yl]amino}pyridin-2-yl)-1,3-thiazol-2-yl]ethyl}-2,2-dimethylcyclohexanecarboxylic acid]
4 | ≤ 100 nM | Cc1cc(Nc2cc(C(F)(F)F)ccn2)nc(-c2cnc(C(C)(O)[C@H]3CC[C@H](C(=O)O)C(C)(C)C3)s2)c1 (stereo partly drawn) [Example 14-32, (1S,4S)-4-{1-hydroxy-1-[5-(4-methyl-6-{[4-(trifluoromethyl)pyridin-2-yl]amino}pyridin-2-yl)-1,3-thiazol-2-yl]ethyl}-2,2-dimethylcyclohexanecarboxylic acid]
5 | ≤ 100 nM | Cc1ccnc(Nc2cc(C)cc(-c3cnc(C(C)(O)[C@H]4CC[C@H](C(=O)O)C(C)(C)C4)s3)n2)c1 (stereo partly drawn) [Example 14-33, (1S,4S)-4-[1-hydroxy-1-(5-{4-methyl-6-[(4-methylpyridin-2-yl)amino]pyridin-2-yl}-1,3-thiazol-2-yl)ethyl]-2,2-dimethylcyclohexanecarboxylic acid]
6 | ≤ 100 nM | Cc1ccnc(Nc2cc(C)cc(-c3cnc(C(C)(O)[C@H]4CC[C@H](C(=O)O)C(C)(C)C4)s3)n2)c1 (stereo partly drawn) [Example 14-34, (1S,4S)-4-[1-hydroxy-1-(5-{4-methyl-6-[(4-methylpyridin-2-yl)amino]pyridin-2-yl}-1,3-thiazol-2-yl)ethyl]-2,2-dimethylcyclohexanecarboxylic acid]
7 | ≤ 100 nM | COc1ccnc(Nc2cc(C)cc(-c3cnc(C(C)(O)[C@H]4CC[C@H](C(=O)O)C(C)(C)C4)s3)n2)c1 (stereo partly drawn) [Example 14-35, (1S,4S)-4-[1-hydroxy-1-(5-{6-[(4-methoxypyridin-2-yl)amino]-4-methylpyridin-2-yl}-1,3-thiazol-2-yl)ethyl]-2,2-dimethylcyclohexanecarboxylic acid]
8 | ≤ 100 nM | COc1ccnc(Nc2cc(C)cc(-c3cnc(C(C)(O)[C@H]4CC[C@H](C(=O)O)C(C)(C)C4)s3)n2)c1 (stereo partly drawn) [Example 14-36, (1S,4S)-4-[1-hydroxy-1-(5-{6-[(4-methoxypyridin-2-yl)amino]-4-methylpyridin-2-yl}-1,3-thiazol-2-yl)ethyl]-2,2-dimethylcyclohexanecarboxylic acid]
9 | ≤ 100 nM | Cc1cc(Nc2cc(C(F)F)ccn2)nc(-c2cnc(C(C)(O)[C@H]3CC[C@H](C(=O)O)C(C)(C)C3)s2)c1 (stereo partly drawn) [Example 14-37, (1S,4S)-4-{1-[5-(6-{[4-(difluoromethyl)pyridin-2-yl]amino}-4-methylpyridin-2-yl)-1,3-thiazol-2-yl]-1-hydroxyethyl}-2,2-dimethylcyclohexanecarboxylic acid]
10 | ≤ 100 nM | Cc1cc(Nc2cc(C(F)F)ccn2)nc(-c2cnc(C(C)(O)[C@H]3CC[C@H](C(=O)O)C(C)(C)C3)s2)c1 (stereo partly drawn) [Example 14-38, (1S,4S)-4-{1-[5-(6-{[4-(difluoromethyl)pyridin-2-yl]amino}-4-methylpyridin-2-yl)-1,3-thiazol-2-yl]-1-hydroxyethyl}-2,2-dimethylcyclohexanecarboxylic acid]
11 | ≤ 100 nM | CC1(C)C[C@@H](C(C)(O)c2ncc(-c3cccc(Nc4cc(C(F)(F)F)ccn4)n3)s2)CC[C@@H]1C(=O)O (stereo partly drawn) [Example 14-44, (1S,4S)-4-{1-hydroxy-1-[5-(6-{[4-(trifluoromethyl)pyridin-2-yl]amino}pyridin-2-yl)-1,3-thiazol-2-yl]ethyl}-2,2-dimethylcyclohexanecarboxylic acid]
12 | ≤ 100 nM | CC1(C)C[C@@H](C(C)(O)c2ncc(-c3cccc(Nc4cc(C(F)(F)F)ccn4)n3)s2)CC[C@@H]1C(=O)O (stereo partly drawn) [Example 14-45, (1S,4S)-4-{1-hydroxy-1-[5-(6-{[4-(trifluoromethyl)pyridin-2-yl]amino}pyridin-2-yl)-1,3-thiazol-2-yl]ethyl}-2,2-dimethylcyclohexanecarboxylic acid]
13 | ≤ 100 nM | Cc1ccnc(Nc2cccc(-c3cnc(C(C)(O)[C@H]4CC[C@H](C(=O)O)C(C)(C)C4)s3)n2)c1 (stereo partly drawn) [Example 14-46, (1S,4S)-4-[1-hydroxy-1-(5-{6-[(4-methylpyridin-2-yl)amino]pyridin-2-yl}-1,3-thiazol-2-yl)ethyl]-2,2-dimethylcyclohexanecarboxylic acid]
14 | ≤ 100 nM | Cc1ccnc(Nc2cccc(-c3cnc(C(C)(O)[C@H]4CC[C@H](C(=O)O)C(C)(C)C4)s3)n2)c1 (stereo partly drawn) [Example 14-47, (1S,4S)-4-[1-hydroxy-1-(5-{6-[(4-methylpyridin-2-yl)amino]pyridin-2-yl}-1,3-thiazol-2-yl)ethyl]-2,2-dimethylcyclohexanecarboxylic acid]
15 | ≤ 100 nM | COc1ccnc(Nc2cccc(-c3cnc(C(C)(O)[C@H]4CC[C@H](C(=O)O)C(C)(C)C4)s3)n2)c1 (stereo partly drawn) [Example 14-48, (1S,4S)-4-[1-hydroxy-1-(5-{6-[(4-methoxypyridin-2-yl)amino]pyridin-2-yl}-1,3-thiazol-2-yl)ethyl]-2,2-dimethylcyclohexanecarboxylic acid]
16 | ≤ 100 nM | COc1ccnc(Nc2cccc(-c3cnc(C(C)(O)[C@H]4CC[C@H](C(=O)O)C(C)(C)C4)s3)n2)c1 (stereo partly drawn) [Example 14-49, (1S,4S)-4-[1-hydroxy-1-(5-{6-[(4-methoxypyridin-2-yl)amino]pyridin-2-yl}-1,3-thiazol-2-yl)ethyl]-2,2-dimethylcyclohexanecarboxylic acid]
17 | ≤ 100 nM | CC1(C)C[C@@H](C(C)(O)c2ncc(-c3cccc(Nc4cc(C(F)F)ccn4)n3)s2)CC[C@@H]1C(=O)O (stereo partly drawn) [Example 14-50, (1S,4S)-4-{1-[5-(6-{[4-(difluoromethyl)pyridin-2-yl]amino}pyridin-2-yl)-1,3-thiazol-2-yl]-1-hydroxyethyl)-2,2-dimethylcyclohexanecarboxylic acid]
18 | ≤ 100 nM | Cc1cc(Nc2cc(C(F)(F)F)ccn2)nc(-c2cnc([C@@](C)(O)[C@H]3CNC(=O)C3)s2)c1 [Example 14-55, (4R)-4-{(1S)-1-hydroxy-1-[5-(4-methyl-6-{[4-(trifluoromethyl)pyridin-2-yl]amino}pyridin-2-yl)-1,3-thiazol-2-yl]ethyl}pyrrolidin-2-one]
19 | ≤ 100 nM | Cc1cc(Nc2cc(C(F)(F)F)ccn2)nc(-c2cnc([C@](C)(O)[C@H]3CNC(=O)C3)s2)c1 [Example 14-56, (4R)-4-{(1R)-1-hydroxy-1-[5-(4-methyl-6-{[4-(trifluoromethyl)pyridin-2-yl]amino}pyridin-2-yl)-1,3-thiazol-2-yl]ethyl}pyrrolidin-2-one]
20 | ≤ 100 nM | Cc1cc(Nc2cc(C(F)(F)F)ccn2)nc(-c2cnc(C(C)(O)C3CCC(C(=O)O)C(C)C3)s2)c1 (centres unmarked) [Example 15-14, 4-{1-hydroxy-1-[5-(4-methyl-6-{[4-(trifluoromethyl)pyridin-2-yl]amino}pyridin-2-yl)-1,3-thiazol-2-yl]ethyl}-2-methylcyclohexanecarboxylic acid]
